According to patent US12568972B2, “Pyridazinol compounds and derivatives, preparation methods, herbicidal compositions and applications thereof” (Qingdao Kingagroot Chemical Compound Co., Ltd., priority 2018, dated 2026):

Legend:
Test in all cases: Post-emergence test, weed control effect
Type in all cases: in vivo
Settings in all cases: Dose 3000 g/ha, after 3 weeks
Veronica polita = system: Veronica polita
From the text: (§1) The activity level standard of harmful plant destruction (i.e. growth inhibition rate) is as follows: • Level 10: completely dead; • Level 9: above 90% growth inhibition rate; • Level 8: above 80% growth inhibition rate; • Level 7: above 70% growth inhibition rate; • Level 6: above 60% growth inhibition rate; • Level 5: above 50% growth inhibition rate; • Level 4: above 40% growth inhibition rate; • Level 3: above 30% growth inhibition rate; • Level 2: above 20% growth inhibition rate; • Level 1: below 20% growth inhibition rate; • Level 0: no effect.
(§2) The above described growth inhibition rates are fresh weight inhibition rates.
(§3) Experiment of post-emergence test: monocotyledonous and dicotyledonous weed seeds as well as main crop seeds (i.e., wheat, corn, rice, soybean, cotton, oilseed rape, millet and sorghum) were put into a plastic pot loaded with soil, then covered with 0.5-2 cm of soil, and the seeds were allowed to grow in good greenhouse environment. The test plants were treated at 2-3 leaf stage 2-3 weeks after sowing. The test compounds of the invention were dissolved in acetone respectively, then added with Tween-80 and diluted by a certain amount of water to give solutions with certain concentrations, and added with 80% vegetable oil methyl ester synergist at 1500 g/ha. The solution was sprayed to the plants with a sprayer. The plants were cultured for 3 weeks in the greenhouse.

Rorippa indica = system: Rorippa indica
From the text: as §1, §2, §3

Chenopodiaceae = system: Chenopodiaceae
From the text: as §1, §2, §3

Amaranthus retroflexus = system: Amaranthus retroflexus
From the text: as §1, §2, §3

CCCCCCCSC(=O)Oc1cc(C(F)(F)F)nnc1-c1ccc(Cl)c(Cl)c1 [Compound 1-53]
10: weed control effect, Veronica polita (activity level) (Veronica polita) | weed control effect, Rorippa indica (activity level) (Rorippa indica) | weed control effect, Chenopodiaceae (activity level) (Chenopodiaceae) | weed control effect, Amaranthus retroflexus (activity level) (Amaranthus retroflexus)

CCCCCCCCSC(=O)Oc1cc(C(F)(F)F)nnc1-c1ccc(F)cc1 [Compound 1-54]
10: weed control effect, Veronica polita (activity level) (Veronica polita) | weed control effect, Rorippa indica (activity level) (Rorippa indica) | weed control effect, Chenopodiaceae (activity level) (Chenopodiaceae) | weed control effect, Amaranthus retroflexus (activity level) (Amaranthus retroflexus)

O=C(Oc1cc(C(F)(F)F)nnc1-c1ccccc1)SC1CCCCC1 [Compound 1-58]
10: weed control effect, Veronica polita (activity level) (Veronica polita) | weed control effect, Rorippa indica (activity level) (Rorippa indica) | weed control effect, Chenopodiaceae (activity level) (Chenopodiaceae) | weed control effect, Amaranthus retroflexus (activity level) (Amaranthus retroflexus)

CN(C)C(=O)Oc1cc(C(F)(F)F)nnc1-c1ccc(F)c(F)c1 [Compound 1-60]
10: weed control effect, Veronica polita (activity level) (Veronica polita) | weed control effect, Rorippa indica (activity level) (Rorippa indica) | weed control effect, Chenopodiaceae (activity level) (Chenopodiaceae) | weed control effect, Amaranthus retroflexus (activity level) (Amaranthus retroflexus)

CCON(C)C(=O)Oc1cc(C(F)(F)F)nnc1-c1ccc(F)cc1 [Compound 1-63]
10: weed control effect, Veronica polita (activity level) (Veronica polita) | weed control effect, Rorippa indica (activity level) (Rorippa indica) | weed control effect, Chenopodiaceae (activity level) (Chenopodiaceae) | weed control effect, Amaranthus retroflexus (activity level) (Amaranthus retroflexus)

CN1CCN(C(=O)Oc2cc(C(F)(F)F)nnc2-c2ccc(F)cc2)CC1 [Compound 1-64]
10: weed control effect, Veronica polita (activity level) (Veronica polita) | weed control effect, Rorippa indica (activity level) (Rorippa indica) | weed control effect, Chenopodiaceae (activity level) (Chenopodiaceae) | weed control effect, Amaranthus retroflexus (activity level) (Amaranthus retroflexus)

O=C(Oc1cc(C(F)(F)F)nnc1-c1ccccc1)N1CCOCC1 [Compound 1-65]
10: weed control effect, Veronica polita (activity level) (Veronica polita) | weed control effect, Rorippa indica (activity level) (Rorippa indica) | weed control effect, Chenopodiaceae (activity level) (Chenopodiaceae) | weed control effect, Amaranthus retroflexus (activity level) (Amaranthus retroflexus)

O=C(Oc1cc(C(F)(F)F)nnc1-c1ccc(F)c(F)c1)N1CCOCC1 [Compound 1-66]
10: weed control effect, Veronica polita (activity level) (Veronica polita) | weed control effect, Rorippa indica (activity level) (Rorippa indica) | weed control effect, Chenopodiaceae (activity level) (Chenopodiaceae) | weed control effect, Amaranthus retroflexus (activity level) (Amaranthus retroflexus)

O=C(Oc1cc(C(F)(F)F)nnc1-c1ccc(F)cc1)N1CCCCC1 [Compound 1-67]
10: weed control effect, Veronica polita (activity level) (Veronica polita) | weed control effect, Rorippa indica (activity level) (Rorippa indica) | weed control effect, Chenopodiaceae (activity level) (Chenopodiaceae) | weed control effect, Amaranthus retroflexus (activity level) (Amaranthus retroflexus)

O=C(Oc1cc(C(F)(F)F)nnc1-c1ccc(F)cc1)N1CCOCC1 [Compound 1-68]
10: weed control effect, Veronica polita (activity level) (Veronica polita) | weed control effect, Rorippa indica (activity level) (Rorippa indica) | weed control effect, Chenopodiaceae (activity level) (Chenopodiaceae) | weed control effect, Amaranthus retroflexus (activity level) (Amaranthus retroflexus)

O=C1CCCCN1C(=O)Oc1cc(C(F)(F)F)nnc1-c1ccc(F)cc1 [Compound 1-69]
10: weed control effect, Veronica polita (activity level) (Veronica polita) | weed control effect, Rorippa indica (activity level) (Rorippa indica) | weed control effect, Chenopodiaceae (activity level) (Chenopodiaceae) | weed control effect, Amaranthus retroflexus (activity level) (Amaranthus retroflexus)

COC(=O)CCCCC(=O)Oc1cc(C(F)(F)F)nnc1-c1ccc(F)cc1 [Compound 1-70]
10: weed control effect, Veronica polita (activity level) (Veronica polita) | weed control effect, Rorippa indica (activity level) (Rorippa indica) | weed control effect, Chenopodiaceae (activity level) (Chenopodiaceae) | weed control effect, Amaranthus retroflexus (activity level) (Amaranthus retroflexus)

COCC(=O)Oc1cc(C(F)(F)F)nnc1-c1ccc(F)c(F)c1 [Compound 1-71]
10: weed control effect, Veronica polita (activity level) (Veronica polita) | weed control effect, Rorippa indica (activity level) (Rorippa indica) | weed control effect, Chenopodiaceae (activity level) (Chenopodiaceae) | weed control effect, Amaranthus retroflexus (activity level) (Amaranthus retroflexus)

CCO/C=C/C(=O)Oc1cc(C(F)(F)F)nnc1-c1cccc(F)c1 [Compound 1-75]
10: weed control effect, Veronica polita (activity level) (Veronica polita) | weed control effect, Rorippa indica (activity level) (Rorippa indica) | weed control effect, Chenopodiaceae (activity level) (Chenopodiaceae) | weed control effect, Amaranthus retroflexus (activity level) (Amaranthus retroflexus)

CC(=O)CC(=O)Oc1cc(C(F)(F)F)nnc1-c1ccc(F)cc1 [Compound 1-76]
10: weed control effect, Veronica polita (activity level) (Veronica polita) | weed control effect, Rorippa indica (activity level) (Rorippa indica) | weed control effect, Chenopodiaceae (activity level) (Chenopodiaceae) | weed control effect, Amaranthus retroflexus (activity level) (Amaranthus retroflexus)

CSCCC(=O)Oc1cc(C(F)(F)F)nnc1-c1ccc(F)c(F)c1 [Compound 1-77]
10: weed control effect, Veronica polita (activity level) (Veronica polita) | weed control effect, Rorippa indica (activity level) (Rorippa indica) | weed control effect, Chenopodiaceae (activity level) (Chenopodiaceae) | weed control effect, Amaranthus retroflexus (activity level) (Amaranthus retroflexus)

CP(=O)(O)CCC(N)C(=O)Oc1cc(C(F)(F)F)nnc1-c1ccc(F)cc1 (stereo not drawn) [Compound 1-78]
10: weed control effect, Veronica polita (activity level) (Veronica polita) | weed control effect, Rorippa indica (activity level) (Rorippa indica) | weed control effect, Chenopodiaceae (activity level) (Chenopodiaceae) | weed control effect, Amaranthus retroflexus (activity level) (Amaranthus retroflexus)

O=C(Oc1cc(C(F)(F)F)nnc1-c1ccc(F)c(F)c1)c1ccccc1 [Compound 1-79]
10: weed control effect, Veronica polita (activity level) (Veronica polita) | weed control effect, Rorippa indica (activity level) (Rorippa indica) | weed control effect, Chenopodiaceae (activity level) (Chenopodiaceae) | weed control effect, Amaranthus retroflexus (activity level) (Amaranthus retroflexus)

Cc1ccc(-c2nnc(C(F)(F)F)cc2OC(=O)c2ccccc2C)cc1 [Compound 1-80]
10: weed control effect, Veronica polita (activity level) (Veronica polita) | weed control effect, Rorippa indica (activity level) (Rorippa indica) | weed control effect, Chenopodiaceae (activity level) (Chenopodiaceae) | weed control effect, Amaranthus retroflexus (activity level) (Amaranthus retroflexus)

O=C(Oc1cc(C(F)(F)F)nnc1-c1ccc(Cl)cc1)c1ccccc1Cl [Compound 1-83]
10: weed control effect, Veronica polita (activity level) (Veronica polita) | weed control effect, Rorippa indica (activity level) (Rorippa indica) | weed control effect, Chenopodiaceae (activity level) (Chenopodiaceae) | weed control effect, Amaranthus retroflexus (activity level) (Amaranthus retroflexus)

COc1ccc(C(=O)Oc2cc(C(F)(F)F)nnc2-c2ccc(F)c(F)c2)cc1 [Compound 1-84]
10: weed control effect, Veronica polita (activity level) (Veronica polita) | weed control effect, Rorippa indica (activity level) (Rorippa indica) | weed control effect, Chenopodiaceae (activity level) (Chenopodiaceae) | weed control effect, Amaranthus retroflexus (activity level) (Amaranthus retroflexus)

O=C(Oc1cc(C(F)(F)F)nnc1-c1ccc(F)cc1)c1ccccc1O [Compound 1-85]
10: weed control effect, Veronica polita (activity level) (Veronica polita) | weed control effect, Rorippa indica (activity level) (Rorippa indica) | weed control effect, Chenopodiaceae (activity level) (Chenopodiaceae) | weed control effect, Amaranthus retroflexus (activity level) (Amaranthus retroflexus)

CC(=O)Oc1ccccc1C(=O)Oc1cc(C(F)(F)F)nnc1-c1ccccc1 [Compound 1-87]
10: weed control effect, Veronica polita (activity level) (Veronica polita) | weed control effect, Rorippa indica (activity level) (Rorippa indica) | weed control effect, Chenopodiaceae (activity level) (Chenopodiaceae) | weed control effect, Amaranthus retroflexus (activity level) (Amaranthus retroflexus)

O=C(Oc1cc(C(F)(F)F)nnc1-c1ccc(C(F)(F)F)cc1)c1cccc(OC(F)(F)F)c1 [Compound 1-88]
10: weed control effect, Veronica polita (activity level) (Veronica polita) | weed control effect, Rorippa indica (activity level) (Rorippa indica) | weed control effect, Chenopodiaceae (activity level) (Chenopodiaceae) | weed control effect, Amaranthus retroflexus (activity level) (Amaranthus retroflexus)

CN(C)c1ccc(C(=O)Oc2cc(C(F)(F)F)nnc2-c2cccc(F)c2)cc1 [Compound 1-90]
10: weed control effect, Veronica polita (activity level) (Veronica polita) | weed control effect, Rorippa indica (activity level) (Rorippa indica) | weed control effect, Chenopodiaceae (activity level) (Chenopodiaceae) | weed control effect, Amaranthus retroflexus (activity level) (Amaranthus retroflexus)

O=C(Oc1cc(C(F)(F)F)nnc1-c1ccc(F)cc1)c1ccc(Cl)cc1Cl [Compound 1-91]
10: weed control effect, Veronica polita (activity level) (Veronica polita) | weed control effect, Rorippa indica (activity level) (Rorippa indica) | weed control effect, Chenopodiaceae (activity level) (Chenopodiaceae) | weed control effect, Amaranthus retroflexus (activity level) (Amaranthus retroflexus)

O=C(Oc1cc(C(F)(F)F)nnc1-c1ccc(F)cc1)c1cc(F)cc(F)c1F [Compound 1-93]
10: weed control effect, Veronica polita (activity level) (Veronica polita) | weed control effect, Rorippa indica (activity level) (Rorippa indica) | weed control effect, Chenopodiaceae (activity level) (Chenopodiaceae) | weed control effect, Amaranthus retroflexus (activity level) (Amaranthus retroflexus)
